Tests used:
FGFR2 (N549H) = biological target: T1, FGFR2 (N549H) (Homo sapiens, UniProt P21802, N549H); experiment: FGFR2 kinase activity assay (fluorescent ELISA); format: biochemical
T1 construct: purchased Millipore 14-742
Description: The enzymatic assays described herein are conducted according to the following procedures from commercially available reagents. In one, non limiting, example, a fluorescent ELISA assay is used to identify and characterize inhibitors of FGFR2 kinase as described herein. This heterogeneous assay utilizes a biotinylated peptide with a tyrosine motif as a substrate and an anti-phospho-tyrosine antibody to measure phosphorylation of the substrate. The reaction is initiated by adding the test compound, 37 μM Pyk2 substrate (Midwest Biotech, Cat. # MBT2383), 12.5 μM ATP (Roche, Cat. #11 140 965 001) and 0.5 μM FGFR2 enzyme (Millipore, Cat. #14-742) sequentially to a non-binding polypropylene V-well plate. All reagents are in an assay buffer consisting of: 50 mM Tris-HCL, 0.02 mg/ml BSA, 10 mM MgCl2, 0.1 mM Na3VO4, 1 mM EGTA, 75 μM ATP, 0.01% NP-40, 2 mM DTT and 10% glycerol. The reaction is incubated for 60 minutes. As the reaction proceeds, FGFR2 phosphorylates tyrosines in the peptide. The reaction mixture is then moved to a blocked streptavidin-coated Nunc Maxisorb plate (coated with 100 ng streptavidin from Pierce (Cat. #15-124) per well), allowing for the capture of the biotinylated peptide. Peptides are captured for 30 minutes at room temperature, the phosphorylation of peptides continues during this phase. The reaction is stopped by washing the streptavidin-coated plate 6 times with TBST. Phosphorylated peptide is detected by adding anti-phospho-tyrosine antibody (Cell Signaling, Cat. #9411, diluted 1:3000) to the streptavidin-coated plate. Unbound anti-phospho-tyrosine antibody is removed by washing the streptavidin-coated plate 6 times with TBST. Secondary detection is performed using alkaline phosphatase tagged goat anti-mouse antibody (Pierce, Cat. #31320, diluted 1:4000) for one hour. Unbound secondary antibody is removed by washing the streptavidin-coated plate 6 times with TBST. The fluorescent readout is initiated by adding to the streptavidin-coated plate Promega Attophos substrate (Promega, Cat. # S1000, dilution=6 mg/10 ml), which, when dephosphorylated by alkaline phosphatase, emits a fluorescent signal of 595 nm in wavelength when excited by a signal of 400 nm in wavelength. The reading of the 595 nm signal is done on the Perkin Elmer Envision system. Compounds which prevent FGFR2 from phosphorylating the peptide result in a lower fluorescent signal. The 595 nm fluorescent signal is directly proportional to the activity of FGFR2. Thus, the inhibition of FGFR2 by compounds is monitored by the decrease in the 595 nm fluorescent signal.

DLD-1 = experiment: MTS assay, DLD-1; format: cell-based; conditions: Homo sapiens, DLD-1, 72 h
Description: (§1) Cells were maintained at 37° C., 5% CO2 in RPMI media supplemented with 1% fetal bovine serum, penicillin/streptomycin and fungizone (Invitrogen). Cells were seeded into 96-well tissue culture plates at 3000 per well and cultured at 37° C. for 18 h. Test compounds were dissolved and diluted to 300× in DMSO then diluted 1:40 in DMEM. Cells were incubated with test compounds for 72 hours followed by incubation with tetrazolium compound (3-(4,5-dimethylthiazol-2-yl)-5-(3-carboxymethoxyphenyl)-2-(4-sulfophenyl)-2H-tetrazolium, inner salt; MTS) and the electron coupling reagent, phenazine methosulfate (PMS) for 4 hours. […] The ability of compounds to inhibit cell growth in this assay is correlated with the reduction of dehydrogenase enzyme activity found in metabolically active cells. The measurement of the absorbance of the formazan was assessed using an ENVISION™ (Perkin Elmer) microplate reader at 492 nm. The calculated IC50 value is the concentration of the test compound that causes a 50% decrease in the absorbance.

MDA-MB-231 = experiment: MTS assay, MDA-MB-231; format: cell-based; conditions: Homo sapiens, MDA-MB-231, 72 h
Description: as §1

T1 sequence (P21802 22-821 N549H): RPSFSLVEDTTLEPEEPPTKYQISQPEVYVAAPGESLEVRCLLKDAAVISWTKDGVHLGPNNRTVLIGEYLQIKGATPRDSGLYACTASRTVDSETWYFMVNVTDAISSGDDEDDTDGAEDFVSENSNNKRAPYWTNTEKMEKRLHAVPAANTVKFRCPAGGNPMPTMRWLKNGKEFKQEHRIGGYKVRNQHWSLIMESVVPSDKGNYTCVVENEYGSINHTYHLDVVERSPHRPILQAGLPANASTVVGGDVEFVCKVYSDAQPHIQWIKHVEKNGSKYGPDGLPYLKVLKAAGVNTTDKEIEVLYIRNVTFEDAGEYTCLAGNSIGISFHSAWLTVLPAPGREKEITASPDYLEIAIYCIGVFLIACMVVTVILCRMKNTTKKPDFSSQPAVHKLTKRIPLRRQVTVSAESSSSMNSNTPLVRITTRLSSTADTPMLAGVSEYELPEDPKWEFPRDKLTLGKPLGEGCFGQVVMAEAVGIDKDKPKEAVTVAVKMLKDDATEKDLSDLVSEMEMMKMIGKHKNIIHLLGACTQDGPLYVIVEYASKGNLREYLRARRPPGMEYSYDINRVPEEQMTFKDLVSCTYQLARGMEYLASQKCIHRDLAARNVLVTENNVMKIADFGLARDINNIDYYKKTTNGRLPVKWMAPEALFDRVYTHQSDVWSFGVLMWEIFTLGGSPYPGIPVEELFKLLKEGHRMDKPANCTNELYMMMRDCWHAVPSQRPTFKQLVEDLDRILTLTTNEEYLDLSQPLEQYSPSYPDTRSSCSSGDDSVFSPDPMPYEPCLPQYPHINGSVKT

SMILES | inhibition at 30 µM (FGFR2 (N549H)) | inhibition at 10 µM (DLD-1) | inhibition at 10 µM (MDA-MB-231)
CCOC(=O)CNC(=O)N1CCC(CNc2nccc(-c3cn4c5c(cccc35)CCC4)n2)CC1 [Compound 34, ethyl 2-(4-((4-(5,6-dihydro-4H-pyrrolo[3,2,1-ij]quinolin-1-yl)pyrimidin-2-ylamino)methyl)piperidine-1-carboxamido)acetate] | 60% | 65% | 
O=S(=O)(c1ccc(Cl)cc1)N1CCC(CNc2nccc(-c3cn4c5c(cccc35)CCC4)n2)CC1 [Compound 35, N-((1-(4-chlorophenylsulfonyl)piperidin-4-yl)methyl)-4-(5,6-dihydro-4H-pyrrolo[3,2,1-ij]quinolin-1-yl)pyrimidin-2-amine] |  | 97% | 98%
CC(C)(C)C(=O)N1CCC(CNc2nccc(-c3cn4c5c(cccc35)CCC4)n2)CC1 [Compound 36, 1-(4-((4-(5,6-dihydro-4H-pyrrolo[3,2,1-ij]quinolin-1-yl)pyrimidin-2-ylamino)methyl)piperidin-1-yl)-2,2-dimethylpropan-1-one] |  | 85% | 
c1cc2c3c(c1)c(-c1ccnc(N[C@H]4CCCNC4)n1)cn3CCC2 [Compound 37, (S)-4-(5,6-dihydro-4H-pyrrolo[3,2,1-ij]quinolin-1-yl)-N-(piperidin-3-yl)pyrimidin-2-amine] | 102% | 83% | 83%
COc1ccc(NC(=O)N2CCC(CNc3nccc(-c4cn5c6c(cccc46)CCC5)n3)CC2)cc1 [Compound 38, 4-((4-(5,6-dihydro-4H-pyrrolo[3,2,1-ij]quinolin-1-yl)pyrimidin-2-ylamino)methyl)-N-(4-methoxyphenyl)piperidine-1-carboxamide] | 79% | 97% | 98%
O=C(Nc1ccc(-c2ccccc2)cc1)N1CCC(CNc2nccc(-c3cn4c5c(cccc35)CCC4)n2)CC1 [Compound 39, N-(biphenyl-4-yl)-4-((4-(5,6-dihydro-4H-pyrrolo[3,2,1-ij]quinolin-1-yl)pyrimidin-2-ylamino)methyl)piperidine-1-carboxamide] | 71% | 52% | 31%
CCOC(=O)c1ccc(NC(=O)N2CCC(CNc3nccc(-c4cn5c6c(cccc46)CCC5)n3)CC2)cc1 [Compound 40, ethyl 4-(4-((4-(5,6-dihydro-4H-pyrrolo[3,2,1-ij]quinolin-1-yl)pyrimidin-2-ylamino)methyl)piperidine-1-carboxamido)benzoate] | 68% | 98% | 99%
CCOC(=O)NC(=O)N1CCC(CNc2nccc(-c3cn4c5c(cccc35)CCC4)n2)CC1 [Compound 41, ethyl 4-((4-(5,6-dihydro-4H-pyrrolo[3,2,1-ij]quinolin-1-yl)pyrimidin-2-ylamino)methyl)piperidine-1-carbonylcarbamate] | 68% |  | 33%
O=C(Nc1ccccc1)N1CCC(CNc2nccc(-c3cn4c5c(cccc35)CCC4)n2)CC1 [Compound 42, 4-((4-(5,6-dihydro-4H-pyrrolo[3,2,1-ij]quinolin-1-yl)pyrimidin-2-ylamino)methyl)-N-phenylpiperidine-1-carboxamide] | 66% | 97% | 79%
CCCNC(=O)N1CCC(CNc2nccc(-c3cn4c5c(cccc35)CCC4)n2)CC1 [Compound 43, 4-((4-(5,6-dihydro-4H-pyrrolo[3,2,1-ij]quinolin-1-yl)pyrimidin-2-ylamino)methyl)-N-propylpiperidine-1-carboxamide] | 65% | 86% | 43%
O=C(Nc1ccc(Cl)cc1)N1CCC(CNc2nccc(-c3cn4c5c(cccc35)CCC4)n2)CC1 [Compound 44, N-(4-chlorophenyl)-4-((4-(5,6-dihydro-4H-pyrrolo[3,2,1-ij]quinolin-1-yl)pyrimidin-2-ylamino)methyl)piperidine-1-carboxamide] | 65% | 97% | 84%
Cc1ccc(NC(=O)N2CCC(CNc3nccc(-c4cn5c6c(cccc46)CCC5)n3)CC2)cc1 [Compound 45, 4-((4-(5,6-dihydro-4H-pyrrolo[3,2,1-ij]quinolin-1-yl)pyrimidin-2-ylamino)methyl)-N-p-tolylpiperidine-1-carboxamide] | 64% | 94% | 72%
CC(C)NC(=O)N1CCC(CNc2nccc(-c3cn4c5c(cccc35)CCC4)n2)CC1 [Compound 46, 4-((4-(5,6-dihydro-4H pyrrolo[3,2,1-ij]quinolin-1-yl)pyrimidin-2-ylamino)methyl)-N-isopropylpiperidine-1-carboxamide] | 61% | 52% | 
O=C(NCc1ccccc1)N1CCC(CNc2nccc(-c3cn4c5c(cccc35)CCC4)n2)CC1 [Compound 47, N-benzyl-4-((4-(5,6-dihydro-4H-pyrrolo[3,2,1-ij]quinolin-1-yl)pyrimidin-2-ylamino)methyl)piperidine-1-carboxamide] | 60% | 98% | 97%
CS(=O)(=O)N1CCC(CNc2nccc(-c3cn4c5c(cccc35)CCC4)n2)CC1 [Compound 48, 4-(5,6-dihydro-4H-pyrrolo[3,2,1-ij]quinolin-1-yl)-N-((1-(methylsulfonyl)piperidin-4-yl)methyl)pyrimidin-2-amine] | 59% |  | 
O=C(Nc1cccc(Cl)c1)N1CCC(CNc2nccc(-c3cn4c5c(cccc35)CCC4)n2)CC1 [Compound 49, N-(3-chlorophenyl)-4-((4-(5,6-dihydro-4H-pyrrolo[3,2,1-ij]quinolin-1-yl)pyrimidin-2-ylamino)methyl)piperidine-1-carboxamide] | 58% | 96% | 85%
CC(C)(C)NC(=O)N1CCC(CNc2nccc(-c3cn4c5c(cccc35)CCC4)n2)CC1 [Compound 52, N-tert-butyl-4-((4-(5,6-dihydro-4H-pyrrolo[3,2,1-ij]quinolin-1-yl)pyrimidin-2-ylamino)methyl)piperidine-1-carboxamide] | 51% | 55% | 
Cc1nnc(-c2cn3c4c(cccc24)CCC3)o1 [Compound 56, 1-(5-methyl-1,3,4-oxadiazol-2-yl)-5,6-dihydro-4H-pyrrolo[3,2,1-ij]quinoline] |  | 94% | 77%
Clc1ccc(-c2nnc(-c3cn4c5c(cccc35)CCC4)o2)cc1 [Compound 63, 1-[5-(4-chlorophenyl)-1,3,4-oxadiazol-2-yl]-5,6-dihydro-4H-pyrrolo[3,2,1-ij]quinoline] |  | 98% | 100%
c1cc2c3c(c1)c(-c1nnnn1CC1CCNCC1)cn3CCC2 [Compound 81, 1-[1-(piperidin-4-ylmethyl)-1H-tetrazol-5-yl]-5,6-dihydro-4H-pyrrolo[3,2,1-ij]quinoline] | 91% |  | 
NC1CCC(n2nnnc2-c2cn3c4c(cccc24)CCC3)CC1 (stereo not shown) [Compound 82, 4-[5-(5,6-dihydro-4H-pyrrolo[3,2,1-ij]quinolin-1-yl)-1H-tetrazol-1-yl]cyclohexanamine] | 91% |  | 
c1cc2c3c(c1)c(-c1nnnn1C1CCCNC1)cn3CCC2 (stereo not shown) [Compound 83, 1-(1-piperidin-3-yl-1H-tetrazol-5-yl)-5,6-dihydro-4H-pyrrolo[3,2,1-ij]quinoline] | 84% |  | 
